What was measured:
[1] = system: guard cells (stomatal aperture); assay: Stomatal closure in abaxial epidermal peels of transformed V. faba leaves; type: cell-based, Vicia faba; conditions: for change in half aperture of stomata, closure: 1 h, illuminated
Procedure: (§1) Analysis of AAPK mutants for stomatal aperture changes and anion channel activation. V. faba leaves were biolistically transformed with the pGFP, pAAPK-GFP, or pAAPK(K43A)-GFP constructs. The V. faba leaves were bombarded with gold particles (Bio-Rad) coated with one of the DNA constructs. Bombardment was via a particle delivery system 1000/He (Bio-Rad) as described. (J. Marc et al., 1998, Plant Cell 10:1927).
(§2) Abaxial epidermal peels were isolated and the transformed guard cells were assayed for ABA-mediated prevention of stomatal opening and for stomatal closure stimulated by ABA, CO2 or darkness. Conditions were as in Assman, S., and Baskin, T. (1998) J. Exp. Bot. 49:163 except that the incubation solution was 10 mM MES, 30 mM KCl, pH=6.1, with or without 50 μM {±} cis,trans-ABA. For closure experiments, the transformed leaves were illuminated with 0.20 mmol m^−2 s^−1 white light for 2.5 h to open the stomata. The abaxial epidermal peels were placed in incubation solution and treated with either darkness, 25 μM {±} cis,trans-ABA or with 700 ppm CO2 for 1 h.

[2] = system: guard cells (stomatal aperture); assay: ABA-mediated prevention of stomatal opening in abaxial epidermal peels of transformed V. faba leaves; type: cell-based, Vicia faba; conditions: ABA 50 μM, illuminated
Procedure: as §1, §2

[3] = system: slow anion channels; assay: Whole-cell patch-clamp of guard cell protoplasts, anion channel activation; type: cell-based, Vicia faba
Procedure: Anion channel activation was measured in guard cell protoplasts. Whole-cell patch-clamp experiments were performed according to established methods. Pipette solution contained 100 mM KCl, 50 mM tetramethylammonium, 2 mM MgCl, 6.7 mM EGTA-(Tris)2, 3.35 mM CaCl2, 10 mM HEPES, pH=7.1 (Tris) and 5 mM Mg-ATP. Bath solution contained 40 mM CaCl2, 2 mM MgCl and 10 mM MES-Tris pH5.6. Osmolalities were adjusted with sorbitol to 500 mosmol/kg (in the pipette) or 470 mosmol/kg (in the bath). Protein kinase inhibitor K-252a (Calbiochem) was prepared as a stock solution at 2 mM in dimethyl sulfoxide (DMSO).

[4] = system: AAPK; assay: Kinase activity of immunoprecipitated GFP fusion proteins with histone III-S as substrate; type: biochemical, Vicia faba; conditions: cells transfected with pAAPK-GFP; protoplasts treated with ABA prior to isolation of the proteins
Description: Analysis of AAPK mutants and hybrid expression DNA constructs for ABA-activated protein kinase activity. 1.5×10^7 V. faba guard cell protoplasts were transfected with either the vector, pGFP, or the constructs, pAAPK-GFP or pAAPK(K43A)-GFP by polyethylene glycol (PEG)-mediated DNA transfer. After uptake and expression, protoplasts were lysed and recombinant protein was immunoprecipitated with anti-GFP peptide antibodies (Clontech) and protein A-Sepharose CL-4B (Amersham Pharmacia Biotech). Immunoprecipitated proteins were assayed for kinase activity using histone III-S (Sigma) as substrate.

[5] = system: native AAPK; assay: Native AAPK activity; type: biochemical, Vicia faba
Procedure: Isolation and Identification of ABA-Activated Protein Kinase (AAPK). Guard cell protoplasts (2×10^6; 99.6% pure) were prepared from Vicia faba. Protoplasts were treated with either darkness, ABA or elevated CO2 concentrations prior to protein isolation. Protoplast proteins were extracted and subjected to 2-dimensional gel electrophoresis. Separation was via 12% SDS-polyacrylamide gel electrophoresis (SDS-PAGE). Kinase autophosphorylation activity of subsequently renatured proteins was detected by established methods.

[6] = AAPK(K43A)-GFP transformed guard cells, ABA 25 μM or CO2 700 ppm
[7] = AAPK(K43A)-GFP, untransformed guard cells, ABA 25 μM or CO2 700 ppm

Row | Compound | change in half aperture of stomata, closure [1, 6] | change in half aperture of stomata, closure [1, 7] | change in half aperture of stomata, closure ([1]; AAPK-GFP column, untransformed guard cells, ABA 25 μM) | change in half aperture of stomata, closure ([1]; AAPK-GFP transformed guard cells, ABA 25 μM) | change in half aperture of stomata, closure ([1]; GFP column, untransformed guard cells, ABA 25 μM) | change in half aperture of stomata, closure ([1]; GFP transformed guard cells, ABA 25 μM) | change in half aperture of stomata, opening ([2]; AAPK(K43A)-GFP transformed guard cells) | change in half aperture of stomata, opening ([2]; AAPK(K43A)-GFP, untransformed guard cells) | change in half aperture of stomata, opening ([2]; AAPK-GFP column, untransformed guard cells) | change in half aperture of stomata, opening ([2]; AAPK-GFP transformed guard cells) | change in half aperture of stomata, opening ([2]; GFP column, untransformed guard cells) | change in half aperture of stomata, opening ([2]; GFP transformed guard cells) | effect on slow anion channels ([3]; V. faba guard cells) | effect on anion current magnitude ([3]; whole-cell configuration) | histone phosphorylation activity of immunoprecipitate after ABA treatment of protoplasts [4] | effect on ABA-induced stomatal closure ([1]; kinase inhibitor, untransformed cells) | effect on ABA regulation of anion channels ([3]; untransformed cells) | effect on native AAPK activity [5]
1 | O=C=O [CO2] | −2.23 ± 0.44 (36) micrometers | −2.31 ± 0.46 (36) micrometers |  |  |  |  |  |  |  |  |  |  |  |  |  |  |  | 
2 | CC1=CC(=O)CC(C)(C)C1(O)/C=C/C(C)=C\C(=O)O (racemic) [ABA, abscisic acid] | −0.36 ± 0.26 (56) micrometers | −2.55 ± 0.21 (56) micrometers | −2.58 ± 0.24 (36) micrometers | −2.59 ± 0.30 (36) micrometers | −2.54 ± 0.35 (36) micrometers | −2.52 ± 0.29 (36) micrometers | 0.42 ± 0.17 (46) micrometers | 0.44 ± 0.15 (46) micrometers | 0.41 ± 0.28 (36) micrometers | 0.43 ± 0.22 (36) micrometers | 0.45 ± 0.27 (36) micrometers | 0.42 ± 0.22 (36) micrometers | activated | increased | significantly enhanced |  |  | 
3 | COC(=O)[C@@]1(O)C[C@H]2O[C@]1(C)n1c3ccccc3c3c4c(c5c6ccccc6n2c5c31)C(=O)NC4 [K-252a] |  |  |  |  |  |  |  |  |  |  |  |  |  |  |  | inhibits | inhibits | inhibits
